Data from PMC8027081, “Structural Basis of VSIG3: The Ligand for VISTA” (Frontiers in Immunology, 2021).

T1: human VSIG3-ECD (Homo sapiens, UniProt Q5DX21)
T1 construct: gene IGSF11; extracellular domain (IgV + IgC2), signal peptide (22 aa) removed, His-tagged; RED-NHS labelled for MST; dimer in crystal
T1 sequence (Q5DX21 23-241): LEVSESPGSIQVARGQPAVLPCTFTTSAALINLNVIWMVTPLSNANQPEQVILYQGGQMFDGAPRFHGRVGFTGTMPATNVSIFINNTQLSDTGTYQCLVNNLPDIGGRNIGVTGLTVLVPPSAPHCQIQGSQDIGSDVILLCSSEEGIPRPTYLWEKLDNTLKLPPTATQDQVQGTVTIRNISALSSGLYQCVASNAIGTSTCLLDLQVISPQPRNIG


What was measured:
human VSIG3-ECD = biological target: T1, human VSIG3-ECD; test: microscale thermophoresis; format: binding; conditions: room temperature, 30 min; RED-NHS labelled protein
[1] = biological target: the molecule itself; test: crystal structure; hanging drop vapor diffusion, 4°C, 0.1 M sodium citrate tribasic dihydrate pH 5.6, 0.01 M iron(III) chloride, 10% Jeffamine M-600; VSIG3 at 3 mg/mL; 2.64 Å

Molecule	Kd (human VSIG3-ECD) [µM]	stoichiometry N [1]
O=C(CCn1c(SCC(=O)NC2CCCC2)nc2ccccc2c1=O)NC1CCCCC1 [K284-3046]	11.6 ± 9.12	
human VSIG3 extracellular domain (residues 23-241) expressed in E. coli, refolded (domain or fragment, UniProt Q5DX21 23-241, looked up, VSIG3 (IgSF11), human, UniProt Q5DX21, residues 23-241 (extracellular domain without the 22-residue signal peptide); No PDB id is printed; also called VSIG3-ECD; IgSF11; not shown: His tag (from the vector pET28a)) LEVSESPGSIQVARGQPAVLPCTFTTSAALINLNVIWMVTPLSNANQPEQVILYQGGQMFDGAPRFHGRVGFTGTMPATNVSIFINNTQLSDTGTYQCLVNNLPDIGGRNIGVTGLTVLVPPSAPHCQIQGSQDIGSDVILLCSSEEGIPRPTYLWEKLDNTLKLPPTATQDQVQGTVTIRNISALSSGLYQCVASNAIGTSTCLLDLQVISPQPRNIG		2
